According to patent US20120329787A1, “FUNGICIDAL PYRANONES AND OXAZINONES” (E.I. DU PONT DE NEMOURS AND COMPANY, priority 2011, published 2012):

Assays:
Type in all cases: in vivo
Botrytis cinerea = assay: Test A: tomato Botrytis, spray on tomato seedlings the day before inoculation; details: 200 ppm test suspension; for pest or weed control at 200 ppm: Botrytis cinerea, 120 h, read-out: Test A rating (100 = 100% disease control, 0 = no disease control)
Source text: General protocol for preparing test suspensions for Tests A-I: the test compounds were first dissolved in acetone in an amount equal to 3% of the final volume and then suspended at the desired concentration (in ppm) in acetone and purified water (50/50 mix by volume) containing 250 ppm of the surfactant Trem® 014 (polyhydric alcohol esters). The resulting test suspensions were then used in Tests A-I. Spraying a 200 ppm test suspension to the point of run-off on the test plants was the equivalent of a rate of 500 g/ha. […] (An asterisk “*” next to the rating value indicates a 40 ppm test suspension was used.) The test suspension was sprayed to the point of run-off on tomato seedlings. The following day, the seedlings were inoculated with a spore suspension of Botrytis cinerea (the causal agent of tomato Botrytis) and incubated in a saturated atmosphere at 20° C. for 48 h, and then moved to a growth chamber at 24° C. for 3 additional days, after which time visual disease ratings were made. […] A dash (-) indicates no test results. All results are for 200 ppm except where followed by an asterisk “*”, which indicates a 40 ppm.

Alternaria solani = assay: Test B: tomato early blight, spray on tomato seedlings the day before inoculation; details: 200 ppm test suspension; for pest or weed control at 200 ppm: Alternaria solani, 168 h, read-out: Test B rating (100 = 100% disease control, 0 = no disease control)
Source text: General protocol for preparing test suspensions for Tests A-I: the test compounds were first dissolved in acetone in an amount equal to 3% of the final volume and then suspended at the desired concentration (in ppm) in acetone and purified water (50/50 mix by volume) containing 250 ppm of the surfactant Trem® 014 (polyhydric alcohol esters). The resulting test suspensions were then used in Tests A-I. Spraying a 200 ppm test suspension to the point of run-off on the test plants was the equivalent of a rate of 500 g/ha. […] (An asterisk “*” next to the rating value indicates a 40 ppm test suspension was used.) The test suspension was sprayed to the point of run-off on tomato seedlings. The following day, the seedlings were inoculated with a spore suspension of Alternaria solani (the causal agent of tomato early blight) and incubated in a saturated atmosphere at 27° C. for 48 h, and then moved to a growth chamber at 20° C. for 5 days, after which time visual disease ratings were made. […] A dash (-) indicates no test results. All results are for 200 ppm except where followed by an asterisk “*”, which indicates a 40 ppm.

Septoria nodorum = assay: Test E: Septoria glume blotch, spray on wheat seedlings the day before inoculation; details: 200 ppm test suspension; for pest or weed control at 200 ppm: Parastagonospora nodorum, 264 h, read-out: Test E rating (100 = 100% disease control, 0 = no disease control)
Source text: General protocol for preparing test suspensions for Tests A-I: the test compounds were first dissolved in acetone in an amount equal to 3% of the final volume and then suspended at the desired concentration (in ppm) in acetone and purified water (50/50 mix by volume) containing 250 ppm of the surfactant Trem® 014 (polyhydric alcohol esters). The resulting test suspensions were then used in Tests A-I. Spraying a 200 ppm test suspension to the point of run-off on the test plants was the equivalent of a rate of 500 g/ha. […] (An asterisk “*” next to the rating value indicates a 40 ppm test suspension was used.) The test suspension was sprayed to the point of run-off on wheat seedlings. […] A dash (-) indicates no test results. All results are for 200 ppm except where followed by an asterisk “*”, which indicates a 40 ppm.

Septoria tritici = assay: Test F: wheat leaf blotch, spray on wheat seedlings the day before inoculation; details: 200 ppm test suspension; for pest or weed control at 200 ppm: Zymoseptoria tritici, 504 h, read-out: Test F rating (100 = 100% disease control, 0 = no disease control)
Source text: General protocol for preparing test suspensions for Tests A-I: the test compounds were first dissolved in acetone in an amount equal to 3% of the final volume and then suspended at the desired concentration (in ppm) in acetone and purified water (50/50 mix by volume) containing 250 ppm of the surfactant Trem® 014 (polyhydric alcohol esters). The resulting test suspensions were then used in Tests A-I. Spraying a 200 ppm test suspension to the point of run-off on the test plants was the equivalent of a rate of 500 g/ha. […] (An asterisk “*” next to the rating value indicates a 40 ppm test suspension was used.) The test suspension was sprayed to the point of run-off on wheat seedlings. The following day, the seedlings were inoculated with a spore suspension of Septoria tritici (the causal agent of wheat leaf blotch) and incubated in a saturated atmosphere at 24° C. for 48 h, and then the seedlings were moved to a growth chamber at 20° C. for 19 additional days, after which time visual disease ratings were made. […] A dash (-) indicates no test results. All results are for 200 ppm except where followed by an asterisk “*”, which indicates a 40 ppm.

[1] = system: Puccinia recondita f. sp. tritici; assay: Test G: wheat leaf rust, spray on wheat seedlings after inoculation (curative); details: 200 ppm test suspension, sprayed after inoculation; for pest or weed control at 200 ppm: Puccinia recondita, 96 h, read-out: Test G rating (100 = 100% disease control, 0 = no disease control)
Source text: General protocol for preparing test suspensions for Tests A-I: the test compounds were first dissolved in acetone in an amount equal to 3% of the final volume and then suspended at the desired concentration (in ppm) in acetone and purified water (50/50 mix by volume) containing 250 ppm of the surfactant Trem® 014 (polyhydric alcohol esters). The resulting test suspensions were then used in Tests A-I. Spraying a 200 ppm test suspension to the point of run-off on the test plants was the equivalent of a rate of 500 g/ha. […] (An asterisk “*” next to the rating value indicates a 40 ppm test suspension was used.) Wheat seedlings were inoculated with a spore suspension of Puccinia recondita f. sp. tritici (the causal agent of wheat leaf rust) and incubated in a saturated atmosphere at 20° C. for 24 h, and then moved to a growth chamber at 20° C. for 2 days. At the end of this time, the test suspension was sprayed to the point of run-off, and then the seedlings were moved to a growth chamber at 20° C. for 4 days after which time visual disease ratings were made. […] A dash (-) indicates no test results. All results are for 200 ppm except where followed by an asterisk “*”, which indicates a 40 ppm.

[2] = system: Puccinia recondita f. sp. tritici; assay: Test H: wheat leaf rust, spray on wheat seedlings the day before inoculation; details: 200 ppm test suspension, sprayed before inoculation; for pest or weed control at 200 ppm: Puccinia recondita, 168 h, read-out: Test H rating (100 = 100% disease control, 0 = no disease control)
Source text: General protocol for preparing test suspensions for Tests A-I: the test compounds were first dissolved in acetone in an amount equal to 3% of the final volume and then suspended at the desired concentration (in ppm) in acetone and purified water (50/50 mix by volume) containing 250 ppm of the surfactant Trem® 014 (polyhydric alcohol esters). The resulting test suspensions were then used in Tests A-I. Spraying a 200 ppm test suspension to the point of run-off on the test plants was the equivalent of a rate of 500 g/ha. […] (An asterisk “*” next to the rating value indicates a 40 ppm test suspension was used.) The test suspension was sprayed to the point of run-off on wheat seedlings. The following day, the seedlings were inoculated with a spore suspension of Puccinia recondita f. sp. tritici (the causal agent of wheat leaf rust) and incubated in a saturated atmosphere at 20° C. for 24 h, and then moved to a growth chamber at 20° C. for 6 days, after which time visual disease ratings were made Results for Tests A-I are given in Table A. […] A dash (-) indicates no test results. All results are for 200 ppm except where followed by an asterisk “*”, which indicates a 40 ppm.

[3] = system: Erysiphe graminis f. sp. tritici; assay: Test I: wheat powdery mildew, spray on wheat seedlings the day before inoculation; details: 200 ppm test suspension; for pest or weed control at 200 ppm: Blumeria graminis, 168 h, read-out: Test I rating (100 = 100% disease control, 0 = no disease control)
Source text: General protocol for preparing test suspensions for Tests A-I: the test compounds were first dissolved in acetone in an amount equal to 3% of the final volume and then suspended at the desired concentration (in ppm) in acetone and purified water (50/50 mix by volume) containing 250 ppm of the surfactant Trem® 014 (polyhydric alcohol esters). The resulting test suspensions were then used in Tests A-I. Spraying a 200 ppm test suspension to the point of run-off on the test plants was the equivalent of a rate of 500 g/ha. […] (An asterisk “*” next to the rating value indicates a 40 ppm test suspension was used.) The test suspension was sprayed to the point of run-off on wheat seedlings. The following day, the seedlings were inoculated with a spore dust of Erysiphe graminis f. sp. tritici, (the causal agent of wheat powdery mildew) and incubated in a growth chamber at 20° C. for 7 days, after which time visual disease ratings were made. […] A dash (-) indicates no test results. All results are for 200 ppm except where followed by an asterisk “*”, which indicates a 40 ppm.

| SMILES | Test A rating (100 = 100% disease control, 0 = no disease control) (Botrytis cinerea) | Test B rating (100 = 100% disease control, 0 = no disease control) (Alternaria solani) | Test E rating (100 = 100% disease control, 0 = no disease control) (Septoria nodorum) | Test F rating (100 = 100% disease control, 0 = no disease control) (Septoria tritici) | Test G rating (100 = 100% disease control, 0 = no disease control) [1] | Test H rating (100 = 100% disease control, 0 = no disease control) [2] | Test I rating (100 = 100% disease control, 0 = no disease control) [3] | pest or weed control at 200 ppm (Botrytis cinerea) | pest or weed control at 200 ppm (Alternaria solani) | pest or weed control at 200 ppm (Septoria nodorum) | pest or weed control at 200 ppm (Septoria tritici) | pest or weed control at 200 ppm [1] | pest or weed control at 200 ppm [2] | pest or weed control at 200 ppm [3] |
| --- | --- | --- | --- | --- | --- | --- | --- | --- | --- | --- | --- | --- | --- | --- |
| COc1cc(F)c(-c2c(-c3cc(OC)cc(OC)c3Cl)c(C)oc(=O)c2C)c(F)c1 [Compound 49] | 100% | 100% | 99% | 100% | 100% | 100% | 99% | – | – | – | – | – | – | – |
| COc1cccc(-c2c(-c3ccc(F)cc3F)c(C)oc(=O)c2-c2ccccc2)c1 [Compound 29] | 99% | 93% | 64% | 99% | 32% | 100% | 55% | – | – | – | – | – | – | – |
| COc1cc(OC)cc(-c2c(-c3ccccc3F)c(C)oc(=O)c2-c2ccccc2)c1 [Compound 26] | 99% | 93% | 0% | 95% | 9% | 100% | 27% | – | – | – | – | – | – | – |
| COc1cc(OC)cc(-c2c(-c3ccccc3F)c(C)oc(=O)c2C)c1 [Compound 60] | – | 26% | 0% | 100% | 96% | 100% | 98% | – | – | – | – | – | – | – |
| COc1cc(OC)cc(-c2c(-c3ccc(F)cc3F)c(C)oc(=O)c2C)c1 [Compound 48, 5-(2,4-difluorophenyl)-4-(3,5-dimethoxyphenyl)-3,6-dimethyl-2H-pyran-2-one] | – | – | – | – | – | – | – | 100% | 97% | 99% | 100% | 100% | 100% | 100% |
| COc1cc(OC)cc(-c2c(-c3ccccc3F)noc(=O)c2-c2c(F)cc(F)cc2F)c1 [Compound 23, 4-(3,5-dimethoxyphenyl)-3-(2-fluorophenyl)-5-(2,4,6-trifluorophenyl)-6H-1,2-oxazin-6-one] | – | – | – | – | – | – | – | 100% | 93% | 95% | 99% | 9% | 100% | 0% |
| COc1cc(OC)cc(-c2c(C)oc(=O)c(C)c2-c2c(F)cc(OC)cc2F)c1 [Compound 43] | 100% | 100% | 100% | 100% | 98% | 100% | 100% | – | – | – | – | – | – | – |
| COc1cc(OC)c(Cl)c(-c2c(-c3c(F)cc(F)cc3F)c(C)oc(=O)c2C)c1Cl [Compound 59] | 100% | 0% | 0% | – | 82% | 100% | 90% | – | – | – | – | – | – | – |
| COc1cc(OC)cc(-c2c(C)noc(=O)c2-c2c(F)cc(F)cc2F)c1 [Compound 24] | 98% | 63% | 0% | 99% | 0% | – | 99% | – | – | – | – | – | – | – |
